The text below walks through data of patent publication US8394742B2, “Methods, compounds and compositions with genotype selective anticancer activity” (The Translation Genomics Research Institute, priority 2005, dated 2013).

One assay concerns BxPC-3-DPC4 cells. Nature of the assay: MTS based cell proliferation assay, BxPC-3-DPC4 cells. As to conditions: for IC50: BxPC-3-DPC4 (reexpression of wild-type DPC4), MTS, 4 days. More on the design: species or system human. The protocol: (§1) The inhibition of cell proliferation by library compounds was evaluated using the CellTiter 96 Non-Radioactive Cell Proliferation Assay following the protocol recommended by the manufacturer (Promega, Madison Wis.). Briefly, 2000 cells were seeded in each well of 96-well plates in 90 μl growth medium. Cells were allowed to attach overnight followed by addition of 10 μl of serially diluted compounds into the plates. After incubation for 4 days at 37° C. in a humidified incubator, 20 μl of a 20:1 mixture of (3-(4,5-dimethylthiazol-2-yl)-5-(3-carboxymethoxyphenyl)-2-(4-sulfophenyl)-2H-tetrazolium, inner salt (MTS, 2 mg/ml) and an electron coupling reagent, phenazine methosulfate (PMS, 0.92 mg/ml), was added to each well and incubated for 3 hours at 37° C. Absorbance was then measured using the Wallace Victor microplate reader at 490 nm (PerkinElmer, Wellesley, Mass.). Data were expressed as the percentage of cell growth calculated from the absorbance corrected for background absorbance. The surviving fraction of cells was determined by dividing the mean absorbance values of the treated samples by the mean absorbance values of the DMSO control.
After generating the isogenic cell lines for the DPC4 gene, Applicants then carried out a screening process using the cell lines with the aim to identify compounds that selectively kill cells with deficient DPC4 function. […] In each round, the anti-proliferative activity of compounds was evaluated in different cell lines using the CellTiter 96 Non-Radioactive Cell Proliferation Assay (Promega). In the Toxicity Screen, compounds were evaluated in the BxPC-3 parental cell line at a single concentration of 10 μM. […] The activities of a compound in the DPC4 isogenic cell lines were calculated and a selectivity index was determined for each concentration (Selectivity index=Percentage cell survival in BxPC-3-DPC4 cells/Percentage cell survival in BxPC-3-vector cells). […] These ten compounds were further evaluated in third round of screening, the Selectivity screening. […]

In another assay the test system is HS766T (DPC4 deleted). Nature of the assay: MTS cell proliferation assay, HS766T cells. Type of assay: cell-based. As to conditions: Homo sapiens. The protocol:
as §1
(§2) After generating the isogenic cell lines for the DPC4 gene, Applicants then carried out a screening process using the cell lines with the aim to identify compounds that selectively kill cells with deficient DPC4 function. […]
A general note: Formazan colour is commonly taken as a measure of viable cells.

The test system of a further assay is BxPC-3 cells. Nature of the assay: Cell cycle distribution analysis (propidium iodide, flow cytometry). As to conditions: BxPC-3, 25 μM. It is filed as cell-based, human. The protocol:
Cells (5×10^5) were plated in a T-25 tissue culture flask 24 hours prior to the drug treatment. […] After the treatment, the cells were harvested by trypsinization and centrifugation and then stained with propidium iodide (Sigma) in a modified Krishan buffer (20) for 4 hours at 4° C. The PI stained samples were then analyzed with a FACScan flow cytometer (BD Immunocytometry systems, San Jose, Calif.). Histograms were analyzed for cell cycle compartments and the percentage of cells at each phase of the cell cycle was calculated using CellQuest (BD Immunocytometry systems) analysis software.
A general note: In flow cytometry, cells or beads pass a laser one at a time.

Another assay deals with caspase-3. Nature of the assay: Caspase-3 activation analysis by Western blot. As to conditions: BxPC-3-vector and BxPC-3-DPC4 cells, 25 μM, 24 hours. Type of assay: cell-based, human. The protocol:
FIG. 5A provides a graphic depiction of the Annexin V staining. The percentage of cells in the indicated M1 region was 4.6% in the untreated control and 8.2%, in the UA62001-treated (25 μM, 24 hours) BxPC-3 cells. FIG. 5B provides an image of the activation of pro-caspase-3 in BxPC-3 cells after UA62001 treatment. Whole cell extracts were prepared from BxPC-3-vector and BxPC-3-DPC4 cells after UA62001 (25 μM, 24 hours) treatment. Each lane was loaded with 20 μg of total protein. Camptothecin treated Jurkat cell lysate (20 μg) was loaded as the positive control. Lane 1, BxPC-3-DPC4; lane 2, BxPC-3-DPC4-UA62001; lane 3, BxPC-3-vector; lane 4, BxPC-3-vector-UA62001; lane 5, Jurkat-camptothecin.
Whole cell extracts were prepared using Nonidet P-40 (NP-40) lysis buffer (1% IGEPAL CA-630, a substitute for NP-40, 150 mM NaCl, 50 mM Tris-HCl [pH 7.4], 2 mM EDTA). […] Protein concentrations of the lysates or fractionates were determined using the BCA reagents (PIERCE). […] DPC4 protein was detected by a monoclonal antibody (Oncogene Research Products, Boston, Mass.). p21 protein was detected by a polyclonal antibody (Cell Signaling Technology, Beverly, Mass.). Both active and proto-form of the caspas-3 were detected by a polyclonal antibody obtained from BD Pharmingen (BD Biosciences Pharmingen, San Diego, Calif.). β-Actin, which served as a loading control was detected by a monoclonal antibody (Sigma). […]
In general terms: In western blotting, separated proteins are transferred to a membrane and probed.

The test system of a further assay is IMR-90. The experiment in a line: MTS cell proliferation assay, IMR-90 normal fibroblasts. Type of assay: cell-based, human. As to conditions: IMR-90, even at 200 μM. The protocol:
as §1, §2

Another assay deals with Forf. Nature of the assay: MTS cell proliferation assay, Forf normal fibroblasts. It is filed as cell-based, human. Particulars: even at 200 μM. How it is done:
as §1, §2

As to `O=C1c2ccccc2C(=O)c2c1ccc1c(=O)n(-c3ccccc3)[nH]c21` [UA62001, 2-phenyl-1H-Naphth [2,3-g]indazole-3,6,11(2H)-trione], the half-inhibitory concentration (IC50) (in general, the concentration needed to halve the response being measured) in the assay on BxPC-3-DPC4 cells worked out at 14.7 ± 4.3 µM; with BxPC-3-DPC4 cells (Homo sapiens, 96 h), 25 µM; with HS766T (DPC4 deleted), 3.1 µM. Also, in the assay with BxPC-3-DPC4 cells (two more stable clones, compared with the original clone), the “IC50 values in two more stable clones of BxPC-3-DPC4 cells” value is recorded as “very similar to that in the original clone”. Also, the “cell population in S phase” value in the assay on BxPC-3 cells (24 hours, control 33.6%) amounted to 55.6%; in the assay with BxPC-3 cells (48 hours, control 28.6%), 59.5%; in the assay with BxPC-3 cells (72 hours, control 17.0%), 57.4%. The G2/M phase population in the assay with BxPC-3 cells (untreated control ~10%) is recorded as about 20%. Also, the “cleavage of proto-form of caspase-3” value in the assay on caspase-3 is “did not induce the cleavage”. The growth inhibition entry with IMR-90 and with Forf was “little growth inhibition” each time.
